Here are results for 25 compounds from patent publication US20240368135A1 (VERTEX PHARMACEUTICALS INCORPORATED, priority 2021, published 2024).

Chain of human NaV 1.8 (Q9Y5Y9 126-399 limits assumed): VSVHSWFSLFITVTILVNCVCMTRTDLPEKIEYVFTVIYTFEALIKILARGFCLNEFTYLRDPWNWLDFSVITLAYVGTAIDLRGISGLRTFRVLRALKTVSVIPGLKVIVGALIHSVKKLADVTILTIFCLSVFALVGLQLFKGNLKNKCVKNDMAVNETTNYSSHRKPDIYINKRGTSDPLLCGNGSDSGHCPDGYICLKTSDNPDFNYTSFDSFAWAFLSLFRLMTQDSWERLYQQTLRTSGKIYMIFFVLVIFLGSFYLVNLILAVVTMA
Chain of human NaV 1.8 (Q9Y5Y9 660-890 limits assumed): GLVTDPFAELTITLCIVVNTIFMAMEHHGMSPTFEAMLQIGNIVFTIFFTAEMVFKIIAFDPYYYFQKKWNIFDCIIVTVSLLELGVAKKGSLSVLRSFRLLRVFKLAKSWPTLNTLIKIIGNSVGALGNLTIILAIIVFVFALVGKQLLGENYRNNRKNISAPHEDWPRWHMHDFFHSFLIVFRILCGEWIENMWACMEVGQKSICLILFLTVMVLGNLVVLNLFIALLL
Chain of human NaV 1.8 (Q9Y5Y9 1148-1722 limits assumed): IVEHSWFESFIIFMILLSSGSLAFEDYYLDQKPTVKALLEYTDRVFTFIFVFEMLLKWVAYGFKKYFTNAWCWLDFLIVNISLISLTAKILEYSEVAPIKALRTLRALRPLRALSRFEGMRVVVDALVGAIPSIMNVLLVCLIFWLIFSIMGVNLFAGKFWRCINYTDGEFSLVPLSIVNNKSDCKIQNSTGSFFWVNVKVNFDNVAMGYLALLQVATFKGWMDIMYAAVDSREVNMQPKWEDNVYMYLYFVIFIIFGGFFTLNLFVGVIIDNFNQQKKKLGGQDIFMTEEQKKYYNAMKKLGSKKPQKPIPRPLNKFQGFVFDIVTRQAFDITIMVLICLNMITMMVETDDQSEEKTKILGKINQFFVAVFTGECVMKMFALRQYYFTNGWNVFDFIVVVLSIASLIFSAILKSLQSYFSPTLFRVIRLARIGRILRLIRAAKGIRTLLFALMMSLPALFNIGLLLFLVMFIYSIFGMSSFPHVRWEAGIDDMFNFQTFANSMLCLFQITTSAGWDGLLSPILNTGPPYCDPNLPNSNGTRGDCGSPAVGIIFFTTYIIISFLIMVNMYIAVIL

The first assay addresses human NaV 1.8 (Homo sapiens, UniProt Q9Y5Y9). Put plainly: E-VIPR assay detecting and measuring NaV inhibition properties. In kind it is cell-based. The following applies: HEK cells expressing truncated human NaV 1.8; in the presence of human serum (compound numbers followed by *); read-out: IC50 in the E-VIPR Assay, performed in the presence of human serum. Put shortly: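 Membrane potential was followed by coumarin/oxonol FRET during electrical field stimulation of matrigel-seeded HEK cells carrying truncated human NaV1.8 plus KIR2.1. Dosing used 11 points, 3-fold steps, top 300 nM final, 0.625% DMSO, with or without 25% human serum.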
In the case of `COc1c([C@@H]2C[C@](C)(C(F)(F)F)O[C@H]2C(=O)Nc2cc(C(O)CO)ncc2F)ccc(F)c1F` (single isomer, unassigned) [Compound 689], the IC50 was in the range of 100 to 1000 nM.

Turning to `COc1c([C@H]2[C@H](C(=O)Nc3ccc4nc[nH]c4c3)O[C@@](C)(C(F)(F)F)[C@H]2C)ccc(F)c1F` [Compound 212, (2R,3S,4S,5R)-N-(1H-benzo[d]imidazol-6-yl)-3-(3,4-difluoro-2-methoxyphenyl)-4,5-dimethyl-5-(trifluoromethyl)tetrahydrofuran-2-carboxamide], the IC50 lay within 100 to 1000 nM.

Take `C[C@@H]1[C@H](c2ccc(F)c(F)c2OC(F)F)[C@@H](C(=O)Nc2ccnc(CCO)c2)O[C@]1(C)C(F)(F)F` (single isomer, unassigned) [Compound 457]: the IC50 is not below 1000 nM.

The assay is the same for the next values; noted with them: HEK cells expressing truncated human NaV 1.8; no human serum; read-out: IC50 in the E-VIPR Assay.
For the compound `C[C@H]1[C@@H](c2ccc(F)c(F)c2OCCO)[C@H](C(=O)Nc2ccnc(C(F)F)c2)O[C@@]1(C)C(F)(F)F` [Compound 566, (2R,3S,4S,5R)-3-(3,4-difluoro-2-(2-hydroxyethoxy)phenyl)-N-(2-(difluoromethyl)pyridin-4-yl)-4,5-dimethyl-5-(trifluoromethyl)tetrahydrofuran-2-carboxamide], the IC50 was less than 10 nM.

As for `C[C@H]1[C@@H](c2ccc(F)c(F)c2OCCO)[C@H](C(=O)Nc2ccc3nncn3c2)O[C@@]1(C)C(F)(F)F` [Compound 548], the IC50 lay in the range of 10 to 100 nM.

For `COc1c([C@H]2[C@H](C(=O)NC3(Cc4ccccc4)CC3)O[C@@](C)(C(F)(F)F)[C@H]2C)ccc(F)c1F` [Compound 291, (2R,3S,4S,5R)-N-(1-benzylcyclopropyl)-3-(3,4-difluoro-2-methoxyphenyl)-4,5-dimethyl-5-(trifluoromethyl)tetrahydrofuran-2-carboxamide], the IC50 was not below 1000 nM.

As for `CCS(=O)(=O)c1cc(NC(=O)C2OC(C)(C(F)(F)F)C(C)C2c2ccc(F)c(F)c2OC)ccn1` (single isomer, unassigned) [Compound 51, 3-(3,4-difluoro-2-methoxy-phenyl)-N-(2-ethylsulfonyl-4-pyridyl)-4,5-dimethyl-5-(trifluoromethyl)tetrahydrofuran-2-carboxamide], the 50% inhibitory concentration (IC50) was less than 10 nM.

Consider `CNS(=O)(=O)c1ccc(NC(=O)[C@@H]2O[C@@](C)(C(F)(F)F)[C@@H](C)[C@H]2c2ccc(F)c(F)c2OC)cn1` [Compound 236, (2R,3S,4S,5R)-3-(3,4-difluoro-2-methoxy-phenyl)-4,5-dimethyl-N-[6-(methylsulfamoyl)-3-pyridyl]-5-(trifluoromethyl)tetrahydrofuran-2-carboxamide], for which the IC50 is 10 to 100 nM.

Regarding `C[C@H](CO)COc1c([C@H]2[C@H](C(=O)Nc3ccc(C(N)=O)nc3)O[C@@](C)(C(F)(F)F)[C@H]2C)ccc(F)c1F` [Compound 614, 5-((2R,3S,4S,5R)-3-(3,4-difluoro-2-((R)-3-hydroxy-2-methylpropoxy)phenyl)-4,5-dimethyl-5-(trifluoromethyl)tetrahydrofuran-2-carboxamido)picolinamide], the IC50 was in the range of 10 to 100 nM.

`COCC(c1ccc(NC(=O)[C@@H]2O[C@@](C)(C(F)(F)F)[C@@H](C)[C@H]2c2ccc(F)c(F)c2OC)cn1)N(C)C` (single isomer, unassigned) [Compound 426, rel-(2R*,3S*,4S*,5R*)-3-(3,4-difluoro-2-methoxyphenyl)-N-(6-(1-(dimethylamino)-2-methoxyethyl)pyridin-3-yl)-4,5-dimethyl-5-(trifluoromethyl)-tetrahydrofuran-2-carboxamide]: the IC50 lay in the range of 100 to 1000 nM.

For the compound `COc1c([C@H]2[C@H](C(=O)Nc3ccnc(CN4CCCC4)c3)O[C@@](C)(C(F)(F)F)[C@H]2C)ccc(F)c1F` [Compound 184, (2R,3S,4S,5R)-3-(3,4-difluoro-2-methoxyphenyl)-4,5-dimethyl-N-(2-(pyrrolidin-1-ylmethyl)pyridin-4-yl)-5-(trifluoromethyl)tetrahydrofuran-2-carboxamide], the IC50 was less than 10 nM.

`C[C@@H]1[C@H](c2ccc(F)c(F)c2OC(F)F)[C@@H](C(=O)Nc2ccnc(CC(C)(C)O)c2)O[C@]1(C)C(F)(F)F` (single isomer, unassigned) [Compound 463]: the IC50 is not below 1000 nM.

As to `Cc1nocc1NC(=O)[C@@H]1O[C@@](C)(C(F)(F)F)[C@@H](C)[C@H]1c1ccc(F)c(F)c1OC[C@H](C)N1CC2(COC2)C1` [Compound 623, (2R,3S,4S,5R)-3-[3,4-difluoro-2-[(2S)-2-(2-oxa-6-azaspiro[3.3]heptan-6-yl)propoxy]phenyl]-4,5-dimethyl-N-(3-methylisoxazol-4-yl)-5-(trifluoromethyl)tetrahydrofuran-2-carboxamide], the IC50 was in the range of 10 to 100 nM.

For `CCOc1c([C@H]2[C@H](C(=O)Nc3ccn4nnnc4c3)O[C@@](C)(C(F)(F)F)[C@H]2C)ccc(F)c1C` (stereo in doubt) [Compound 123, rel-(2R,3S,4S,5R)-3-(2-ethoxy-4-fluoro-3-methylphenyl)-4,5-dimethyl-N-(tetrazolo[1,5-a]pyridin-7-yl)-5-(trifluoromethyl)tetrahydrofuran-2-carboxamide], the half-inhibitory concentration (IC50) was less than 10 nM.

On to `COc1c([C@@H]2[C@@H](C(=O)Nc3ccc4cnnn4c3)O[C@](C)(C(F)(F)F)[C@@H]2C)ccc(F)c1C(F)F` (stereo in doubt) [Compound 160, rel-(2S,3R,4R,5S)-N-([1,2,3]triazolo[1,5-a]pyridin-6-yl)-3-(3-(difluoromethyl)-4-fluoro-2-methoxyphenyl)-4,5-dimethyl-5-(trifluoromethyl)tetrahydrofuran-2-carboxamide], for which the half-inhibitory concentration (IC50) lay within 100 to 1000 nM.

On to `COc1c([C@H]2[C@H](C(=O)Nc3cc(C4(N(C)C)COC4)ncc3F)O[C@@](C)(C(F)(F)F)[C@H]2C)ccc(F)c1F` [Compound 363, (2R,3S,4S,5R)-3-(3,4-difluoro-2-methoxyphenyl)-N-(2-(3-(dimethylamino)oxetan-3-yl)-5-fluoropyridin-4-yl)-4,5-dimethyl-5-(trifluoromethyl)tetrahydrofuran-2-carboxamide], for which the concentration for half-maximal inhibition (IC50) lay in the range of 10 to 100 nM.

For `COCC(N)c1cc(NC(=O)[C@@H]2O[C@@](C)(C(F)(F)F)[C@@H](C)[C@H]2c2ccc(F)c(F)c2OC)c(F)cn1` (single isomer, unassigned) [Compound 422, rel-(2R*,3S*,4S*,5R*)-N-(2-(1-amino-2-methoxyethyl)-5-fluoropyridin-4-yl)-3-(3,4-difluoro-2-methoxyphenyl)-4,5-dimethyl-5-(trifluoromethyl)-tetrahydrofuran-2-carboxamide], the 50% inhibitory concentration (IC50) was 10 to 100 nM.

`COc1c([C@H]2[C@H](C(=O)Nc3cc(S(C)(=O)=O)nn3C)O[C@@](C)(C(F)(F)F)[C@H]2C)ccc(F)c1F` [Compound 211, (2R,3S,4S,5R)-3-(3,4-difluoro-2-methoxyphenyl)-4,5-dimethyl-N-(1-methyl-3-(methylsulfonyl)-1H-pyrazol-5-yl)-5-(trifluoromethyl)tetrahydrofuran-2-carboxamide]: the half-maximal inhibitory concentration (IC50) is less than 10 nM.

As to `C=C(CO)COc1c([C@H]2[C@H](C(=O)Nc3ccc4cnnn4c3)O[C@@](C)(C(F)(F)F)[C@H]2C)ccc(F)c1F` [Compound 622, (2R,3S,4S,5R)-3-[3,4-difluoro-2-[2-(hydroxymethyl)allyloxy]phenyl]-4,5-dimethyl-N-(triazolo[1,5-a]pyridin-6-yl)-5-(trifluoromethyl)tetrahydrofuran-2-carboxamide], the IC50 is less than 10 nM.

As to `COc1c([C@H]2[C@H](C(=O)Nc3cnc(CO)n3C)O[C@@](C)(C(F)(F)F)[C@H]2C)ccc(F)c1F` [Compound 21, (2R,3S,4S,5R)-3-(3,4-difluoro-2-methoxy-phenyl)-N-[2-(hydroxymethyl)-3-methyl-imidazol-4-yl]-4,5-dimethyl-5-(trifluoromethyl)tetrahydrofuran-2-carboxamide], the IC50 was 10 to 100 nM.

On to `C[C@H]1[C@@H](c2ccc(F)c(F)c2O[C@H]2C[C@@H](O)C2)[C@H](C(=O)Nc2cncc(C#N)c2)O[C@@]1(C)C(F)(F)F` [Compound 659, (2R,3S,4S,5R)-N-(5-cyanopyridin-3-yl)-3-(3,4-difluoro-2-((1S,3R)-3-hydroxycyclobutoxy)phenyl)-4,5-dimethyl-5-(trifluoromethyl)tetrahydrofuran-2-carboxamide], for which the IC50 is 10 to 100 nM.

On to `COc1c([C@H]2[C@H](C(=O)Nc3ccnc([C@@H](O)[C@H](C)O)c3)O[C@@](C)(C(F)(F)F)[C@H]2C)ccc(F)c1F` (single isomer, unassigned) [Compound 204, rel-(2R*,3S*,4S*,5R*)-3-(3,4-difluoro-2-methoxyphenyl)-N-(2-((1R,2S)-1,2-dihydroxypropyl)pyridin-4-yl)-4,5-dimethyl-5-(trifluoromethyl)tetrahydrofuran-2-carboxamide], for which the half-maximal inhibitory concentration (IC50) is less than 10 nM.

Consider `COc1c([C@H]2[C@H](C(=O)Nc3ccnc(N4CCCN(C)CC4=O)c3)O[C@@](C)(C(F)(F)F)[C@H]2C)ccc(F)c1F` [Compound 467, (2R,3S,4S,5R)-3-(3,4-difluoro-2-methoxyphenyl)-4,5-dimethyl-N-(2-(4-methyl-2-oxo-1,4-diazepan-1-yl)pyridin-4-yl)-5-(trifluoromethyl)tetrahydrofuran-2-carboxamide], for which the IC50 lay in the range of 10 to 100 nM.

On to `CCOc1c([C@H]2[C@H](C(=O)Nc3ccnc(S(C)(=O)=O)c3)O[C@@](C)(C(F)(F)F)[C@H]2C)ccc(F)c1F` (stereo in doubt) [Compound 108, rel-(2R,3S,4S,5R)-3-(2-ethoxy-3,4-difluorophenyl)-4,5-dimethyl-N-(2-(methylsulfonyl)pyridin-4-yl)-5-(trifluoromethyl)tetrahydrofuran-2-carboxamide], for which the IC50 was less than 10 nM.

Turning to `COc1c([C@H]2[C@H](C(=O)Nc3cn(C[C@@H](O)CO)nc3C)O[C@@](C)(C(F)(F)F)[C@H]2C)ccc(F)c1F` [Compound 201, (2R,3S,4S,5R)-3-(3,4-difluoro-2-methoxyphenyl)-N-(1-((R)-2,3-dihydroxypropyl)-3-methyl-1H-pyrazol-4-yl)-4,5-dimethyl-5-(trifluoromethyl)tetrahydrofuran-2-carboxamide], the IC50 was less than 10 nM.

Usually IC50 stands for the point on the concentration scale where inhibition reaches its midpoint.
